# Laboratory results taken from PubChem BioAssay (NCI).
#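 GI50 = concentration required for 50% inhibition of growth. TGI: concentration producing complete growth inhibition.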
# Legend:
# Test in all cases: NCI-60 cell line screen, 384-well format
# DU-145 prostate = tested on: DU-145 prostate
# HOP-62 NSCLC = tested on: HOP-62 NSCLC
# LOX IMVI melanoma = tested on: LOX IMVI melanoma
# OVCAR-4 ovarian = tested on: OVCAR-4 ovarian
# SF-268 CNS = tested on: SF-268 CNS
# SR leukemia = tested on: SR leukemia
# HCT-116 colon = tested on: HCT-116 colon
# OVCAR-5 ovarian = tested on: OVCAR-5 ovarian
# RXF 393 renal = tested on: RXF 393 renal
# TK-10 renal = tested on: TK-10 renal
# CCRF-CEM leukemia = tested on: CCRF-CEM leukemia
# K-562 leukemia = tested on: K-562 leukemia
# SK-MEL-28 melanoma = tested on: SK-MEL-28 melanoma
# EKVX NSCLC = tested on: EKVX NSCLC
# SN12C renal = tested on: SN12C renal
# MCF7 breast = tested on: MCF7 breast
# SNB-19 CNS = tested on: SNB-19 CNS
# OVCAR-3 ovarian = tested on: OVCAR-3 ovarian
# HT29 colon = tested on: HT29 colon
# SK-OV-3 ovarian = tested on: SK-OV-3 ovarian
# NCI/ADR-RES ovarian = tested on: NCI/ADR-RES ovarian
# IGROV1 ovarian = tested on: IGROV1 ovarian
# COLO 205 colon = tested on: COLO 205 colon
# RPMI-8226 leukemia = tested on: RPMI-8226 leukemia
# SF-295 CNS = tested on: SF-295 CNS
# ACHN renal = tested on: ACHN renal
# HL-60(TB) leukemia = tested on: HL-60(TB) leukemia
# BT-549 breast = tested on: BT-549 breast
# HCT-15 colon = tested on: HCT-15 colon
# UO-31 renal = tested on: UO-31 renal
# HCC-2998 colon = tested on: HCC-2998 colon
# SNB-75 CNS = tested on: SNB-75 CNS
# UACC-257 melanoma = tested on: UACC-257 melanoma
# 786-0 renal = tested on: 786-0 renal
# SF-539 CNS = tested on: SF-539 CNS
# NCI-H522 lung = tested on: NCI-H522 lung
# NCI-H322M lung = tested on: NCI-H322M lung
# MOLT-4 leukemia = tested on: MOLT-4 leukemia
# HOP-92 NSCLC = tested on: HOP-92 NSCLC
# OVCAR-8 ovarian = tested on: OVCAR-8 ovarian
# MALME-3M melanoma = tested on: MALME-3M melanoma
# SK-MEL-5 melanoma = tested on: SK-MEL-5 melanoma
# T-47D breast = tested on: T-47D breast
# NCI-H460 NSCLC = tested on: NCI-H460 NSCLC
# NCI-H226 lung = tested on: NCI-H226 lung
# A498 renal = tested on: A498 renal
# SK-MEL-2 melanoma = tested on: SK-MEL-2 melanoma
smiles,measurement,setting,value
O=c1[nH]nc2c3c(cccc13)NC(CN1Cc3ccccc3C1)=N2,GI50,DU-145 prostate,2.96 µM
same,TGI,DU-145 prostate,24.1 µM
same,GI50,HOP-62 NSCLC,4.06 µM
same,TGI,HOP-62 NSCLC,> 100 µM
same,GI50,LOX IMVI melanoma,6.61 µM
same,TGI,LOX IMVI melanoma,> 61.4 µM
same,GI50,OVCAR-4 ovarian,2.14 µM
same,TGI,OVCAR-4 ovarian,12 µM
same,GI50,SF-268 CNS,4.68 µM
same,TGI,SF-268 CNS,37.2 µM
same,GI50,SR leukemia,2.36 µM
same,TGI,SR leukemia,8.2 µM
same,GI50,HCT-116 colon,8.67 µM
same,TGI,HCT-116 colon,> 100 µM
same,GI50,OVCAR-5 ovarian,3.89 µM
same,TGI,OVCAR-5 ovarian,22.6 µM
same,GI50,RXF 393 renal,2.26 µM
same,TGI,RXF 393 renal,7.28 µM
same,GI50,TK-10 renal,2.7 µM
same,TGI,TK-10 renal,17.1 µM
same,GI50,CCRF-CEM leukemia,3.91 µM
same,TGI,CCRF-CEM leukemia,15.2 µM
same,GI50,K-562 leukemia,7.51 µM
same,TGI,K-562 leukemia,> 100 µM
same,GI50,SK-MEL-28 melanoma,5.99 µM
same,TGI,SK-MEL-28 melanoma,27.6 µM
same,GI50,EKVX NSCLC,3.1 µM
same,TGI,EKVX NSCLC,> 100 µM
same,GI50,SN12C renal,4.09 µM
same,TGI,SN12C renal,> 39.4 µM
same,GI50,MCF7 breast,7.24 µM
same,TGI,MCF7 breast,> 100 µM
same,GI50,SNB-19 CNS,48 µM
same,TGI,SNB-19 CNS,> 100 µM
same,GI50,OVCAR-3 ovarian,3.75 µM
same,TGI,OVCAR-3 ovarian,> 88.3 µM
same,GI50,HT29 colon,4.31 µM
same,TGI,HT29 colon,26.3 µM
same,GI50,SK-OV-3 ovarian,3.49 µM
same,TGI,SK-OV-3 ovarian,> 62.2 µM
same,GI50,NCI/ADR-RES ovarian,9.41 µM
same,TGI,NCI/ADR-RES ovarian,> 100 µM
same,GI50,IGROV1 ovarian,3.55 µM
same,TGI,IGROV1 ovarian,70.6 µM
same,GI50,COLO 205 colon,5.51 µM
same,TGI,COLO 205 colon,> 56.2 µM
same,GI50,RPMI-8226 leukemia,13.8 µM
same,TGI,RPMI-8226 leukemia,> 100 µM
same,GI50,SF-295 CNS,10.7 µM
same,TGI,SF-295 CNS,> 100 µM
same,GI50,ACHN renal,5.5 µM
same,TGI,ACHN renal,> 78.1 µM
same,GI50,HL-60(TB) leukemia,12.9 µM
same,TGI,HL-60(TB) leukemia,> 100 µM
same,GI50,BT-549 breast,6.22 µM
same,TGI,BT-549 breast,39.7 µM
same,GI50,HCT-15 colon,8.44 µM
same,TGI,HCT-15 colon,> 100 µM
same,GI50,UO-31 renal,11.4 µM
same,TGI,UO-31 renal,> 100 µM
same,GI50,HCC-2998 colon,3.34 µM
same,TGI,HCC-2998 colon,17.9 µM
same,GI50,SNB-75 CNS,2.32 µM
same,TGI,SNB-75 CNS,18.9 µM
same,GI50,UACC-257 melanoma,> 100 µM
same,TGI,UACC-257 melanoma,> 100 µM
same,GI50,786-0 renal,5.12 µM
same,TGI,786-0 renal,> 67.4 µM
same,GI50,SF-539 CNS,20.9 µM
same,TGI,SF-539 CNS,> 100 µM
same,GI50,NCI-H522 lung,2.49 µM
same,TGI,NCI-H522 lung,7.83 µM
same,GI50,NCI-H322M lung,5.1 µM
same,TGI,NCI-H322M lung,> 45.7 µM
same,GI50,MOLT-4 leukemia,2.5 µM
same,TGI,MOLT-4 leukemia,7.73 µM
same,GI50,HOP-92 NSCLC,2.5 µM
same,TGI,HOP-92 NSCLC,16.9 µM
same,GI50,OVCAR-8 ovarian,5.38 µM
same,TGI,OVCAR-8 ovarian,> 100 µM
same,GI50,MALME-3M melanoma,6 µM
same,TGI,MALME-3M melanoma,> 100 µM
same,GI50,SK-MEL-5 melanoma,3.42 µM
same,TGI,SK-MEL-5 melanoma,> 56.2 µM
same,GI50,T-47D breast,22.8 µM
same,TGI,T-47D breast,> 100 µM
same,GI50,NCI-H460 NSCLC,5.18 µM
same,TGI,NCI-H460 NSCLC,> 71.8 µM
same,GI50,NCI-H226 lung,3.21 µM
same,TGI,NCI-H226 lung,52 µM
same,GI50,A498 renal,3.21 µM
same,TGI,A498 renal,12.4 µM
same,GI50,SK-MEL-2 melanoma,> 87.1 µM
same,TGI,SK-MEL-2 melanoma,> 100 µM
